Measured values: patent US20260183393A1, “IMMUNOSUPPRESSANT-RESISTANT MODIFIED ALLOGENEIC MODIFIED IMMUNE CELLS AND METHODS FOR USE THEREOF” (Beam Therapeutics Inc., priority 2023, published 2026)

Columns and labels:
NK cells = assay: NK cell-mediated lysis of HLA class-I negative T cells with immunosuppressants; format: cell-based, human; details: 10 μg/mL; 4:1 effector-to-target ratio; 48 hours of co-culture
Experimental: The rightmost plots represent the ratio of HLA class-I negative (target cells) and positive T cells in the absence of any NK cells (effector cells) (i.e., a culture with an effector-to-target cell ratio (E:T) of 0:1 because the culture contained no effector cells and only the target cells). Primary human NK cells were activated in vitro with IL-2 and IL-15 cytokines for 72 hours. The activated NK cells were then cultured for 24 hours in the presence of rapamycin (10 μg/mL), tacrolimus (10 μg/mL), or a dimethylsulfoxide (DMSO) control. After the 24 hours, the NK cells were then co-cultured at a 4:1 effector-to-target ratio with an equal mixture of unedited HLA class-I positive (off-target cells) or beta-2-microglobulin (B2M) knock-out (HLA class-I deficient) T cells (target cells) in the presence or absence if the immunosuppressant rapamycin or tacrolimus. T cells co-cultured in the absence of NK cells (0:1 E:T ratio) were used as control. Following 48 hours of co-culture, the frequency of HLA class-I negative and positive T cells was assessed using flow cytometry by immunostaining for pan HLA class-I (ABC). The numbers within each plot indicate the percent of total cells counted falling within the indicated region, where the left regions correspond to HLA class-I negative cells and the right regions correspond to HLA class-I positive cells. […]

[1] = system: T cell-driven rejection of allogeneic HLA-I^+ CAR-T cells; assay: HIS mouse-driven allorejection model, 4CAR-T cell persistence; format: in vivo, human immune system (HIS) mice; details: for rejection of peripheral allogeneic HLA^+ CAR-T cells: RPM 1 mg kg-1 or TAC 10 mg kg-1 daily intraperitoneal for 2 weeks, 1- and 2-weeks post-treatment initiation
Experimental: Female (aged 6-8 weeks) NOD.Cg-Prkdc^scidIL2rg^tm1Wjl/SzJ (NSG) mice (Jackson Laboratory) were maintained in a pathogen-free facility. Briefly, to generate BLT humanized mice, NSG mice were anesthetized and whole-body irradiated (2 Gy), and then implanted with 1 mm^3 fragments of human fetal liver and thymus tissue beneath the murine kidney capsule. Following, 1×10^5 autologous fetal liver-derived CD34^+ hematopoietic stem cells (HSCs) were intravenously injected within 6 hours of transplantation. Beam Therapeutics commercially obtained female NOD-Prkdc^em26Ca52 IL2rg^em26CD22/NjuCrl (NCG) CD34^+ humanized (huNCG) mice from Charles River and female (aged 6-8 weeks) NSG-Tg(IL15)1Sz/SzJ (NSG-IL15tg) mice from Jackson Laboratory. Mice were maintained in a pathogen-free facility at CRADL. Briefly, huCD34-NCG mice were generated from female (aged 4-6 weeks) NCG mice that were myeloablated and then intravenously infused with human umbilical cord blood-derived CD34^+ stem cells from a qualified source. Humanized NK (huNK) mice were generated by supplementing the water of NSG-IL-15tg with Baytril (Bayer) for 1 week followed by whole-body irradiation (2 Gy). 5×10^6 primary human CD56^+ NK cells were then intravenously injected 24 hours later and permitted to engraft. At both facilities, mice were housed in microisolator cages and fed autoclaved food and water. Animal rooms were maintained at 72±2° F., 30-70% relative humidity and were on a 12:12 h light/dark cycle. Human reconstitution was assessed from 12-17 weeks post-transplant in BLT and huNCG mice, and 2-3 weeks post-transplant in huNK mice. […]
For the studies described in FIGS. 16A to 16J, BLT mice were used Cohort #2 (n=12) and Cohort #5 (n=13), and huNCG mice were used in Cohort #1 (n=10), Cohort #3 (n=12) and Cohort #4 (n=10). […] Persistence of 4CAR-T cells was monitored at 1-day post-T cell infusion and weekly thereafter via blood draws from the retro-orbital sinus or submandibular vein. […]

JeKo-1 = assay: Cell growth kinetics with rapamycin, JeKo-1; format: cell-based, human; details: RPM at different concentrations
Experimental: (§1) FIGS. 26A to 26E provide histograms and plots showing malignant B cell lines were sensitive to Rapamycin treatment in vitro. FIG. 26A provides histograms showing geometric median fluorescent intensity (MFI) of phosphorylated mTOR (pS2448), S6 (pS235/[…]) and 4EBP1 (pT36/T45) in JeKo-1, Raji and Nalm6 cell lines, as well as primary human monocytes and bulk lymphocytes. FIGS. 26B to 26D relate to an experiment where JeKo-1, Raji and Nalm6 cells were treated with DMSO or Rapamycin (RPM) and then analyzed for phosphorylation level of mTOR (FIG. 26B), S6 (FIG. 26C) and 4EBP1 (FIG. 26D). FIG. 26E provides plots showing JeKo-1, Raji and Nalm6 cell growth kinetics after treatment with DMSO or RPM at different concentrations. Symbols indicate mean and error bars show ±s.e.m.

Raji = assay: Cell growth kinetics with rapamycin, Raji; format: cell-based, human; details: RPM at different concentrations
Experimental: as §1

Nalm6 = assay: Cell growth kinetics with rapamycin, Nalm6; format: cell-based, human; details: RPM at different concentrations
Experimental: as §1

CO[C@H]1C[C@@H]2CC[C@@H](C)[C@@](O)(O2)C(=O)C(=O)N2CCCC[C@H]2C(=O)O[C@H]([C@H](C)C[C@@H]2CC[C@@H](O)[C@H](OC)C2)CC(=O)[C@H](C)/C=C(\C)[C@@H](O)[C@@H](OC)C(=O)[C@H](C)C[C@H](C)/C=C/C=C/C=C/1C [rapamycin, Rapamycin]
NK cell-mediated lysis of HLA class-I negative T cells (NK cells): attenuated
rejection of peripheral allogeneic HLA^+ CAR-T cells [1]: significantly mitigated rejection
in vitro proliferation (JeKo-1): inhibited in vitro proliferation
in vitro proliferation (Raji): inhibited in vitro proliferation
in vitro proliferation (Nalm6): inhibited in vitro proliferation

C=CC[C@@H]1/C=C(\C)C[C@H](C)C[C@H](OC)[C@H]2O[C@@](O)(C(=O)C(=O)N3CCCC[C@H]3C(=O)O[C@H](/C(C)=C/[C@@H]3CC[C@@H](O)[C@H](OC)C3)[C@H](C)[C@@H](O)CC1=O)[C@H](C)C[C@@H]2OC [tacrolimus, Tacrolimus]
NK cell-mediated lysis of HLA class-I negative T cells (NK cells): attenuated
rejection of peripheral allogeneic HLA^+ CAR-T cells [1]: significantly mitigated rejection
cumulative allogeneic HLA^+ CAR-T cell persistence ([1]; during the treatment window and post-treatment withdrawal, AUC): improved cumulative allogeneic HLA^+ CAR-T cell persistence
